Assay results reported in article PMC4180634, “Pharmacokinetic Study and Bioavailability of a Novel Synthetic Trioxane Antimalarial Compound 97/63 in Rats” (Malaria Research and Treatment, 2014).
Read-outs that look alike come from different tables or passages of the source.

How the values were obtained:
[1] = Stability studies of 97/63 in rat serum samples (long-term, freeze-thaw, dry residue, autoinjector); assay type: physicochemical
Description: Long-term stability of 97/63 was carried by preparing QC samples at low, medium, and high concentrations in three replicates for four different days and stored at -60°C. These sets of samples were analyzed after 0, 7, 15, and 30 days of storage and their concentrations were read from the respective calibration standard curve. The results are expressed as % deviation from 0 days concentration. F-T stability of 97/63 in serum samples was determined by preparing QC of strengths low (10 ng mL^-1), medium (100 ng mL^-1), and high (500 ng mL^-1) in three replicates for four different days. One set of three concentrations was analyzed on day of preparation (no F-T cycle) before storing the remaining sets at -60°C. Other sets were analyzed after 1, 2, and […] cycles. Thawing was achieved by keeping the sealed tubes at room temperatures for 30 min. The results are expressed as % deviation with initial concentration. The effect of storage on dry residue stability was determined at QC 10 ng mL^-1 (low), 100 ng mL^-1 (medium), and 500 ng mL^-1 (high) concentration levels. All the samples (three replicates of three concentrations × 4 sets) were prepared and dry residue was stored in glass tubes sealed with aluminum foil and then with parafilm. One set in triplicate was reconstituted on day 1 with mobile phase and analyzed on the same day (without storage). The remaining sets were similarly analyzed on days 2, 4, and 8 and results are expressed as % deviation. After sample preparation, stability of 97/63 in the autoinjector was evaluated for 4 h; the maximum duration for which the sample may have to wait in the autoinjector tray for pending analysis and results are expressed in % deviation with initial injection (t = 0 h).

malarial parasites [2] = test system: malarial parasites; parameters: method as in earlier work; settings: cited from earlier work
[3] = Single dose pharmacokinetic study after oral and intravenous administration in male rats (serum, HPLC-UV); assay type: in vivo, Sprague-Dawley rats; settings: for half-life: two-compartment model
Description: Male Sprague-Dawley (SD) rats weighing 250 ± 25 g for this study were obtained from institutional Laboratory Animal Division, CDRI, Lucknow, prior to study. Rats were given standard pellets for feeding and filtered water was given ad libitum and they were housed in well ventilated cages which were kept at room temperature on a regular 12-h light-dark cycle. Animals were kept in accordance with the guidelines of local ethical committee (Ethical approval 58/08/PKM/IAEC) for animal experimentation and principles of the guide for care and use of laboratory animals were followed (Department of Health Education and Welfare, number [NIH] 85-32). Oral and IV study was carried out in two sets (I and II). Each set contained two groups, that is, groups A and B. PK was carried out by dosing 97/63 in two groups (A and B) containing four rats in each group for sparse sampling. Young and healthy male SD rats weighing 250 ± 25 g (obtained from Laboratory Animal Division of CDRI) were housed in well ventilated cages and kept at room temperature 25 ± 2°C on a regular 12-h light-dark cycle. Animals were cared for in accordance with the principles of guide for care and use of laboratory animals. Animals in oral study group were fasted overnight to minimize the effects of food on pharmacokinetic profile of 97/63. Intravenous dose was administered as a single bolus injection through tail vein using a 26 G needle after dilating the tail vein [16]. The oral dose was administered using a 2 mL syringe and feeding needle. After intravenous and oral dose administration, rats were also monitored for physiological behavior. […] The intravenous formulation for single dose, 18 mg kg^−1, was a solution of 97/63 in DMSO. The oral formulation for single dose, 72 mg kg^−1, was also a solution of 97/63 in DMSO. The formulations were subjected to quality control (QC) checks to ensure their strength and content uniformity prior to use. The strength of formulation for intravenous and oral administration was 18 mg mL^−1 and 36 mg mL^−1. Compound 97/63 formulated in DMSO was administered to overnight fasted rats by oral and intravenous route. The dose volume factor for intravenous administration was 1 mL kg^−1, with 250 g rat receiving 0.25 mL, and for oral administration it was 2 mL kg^−1, with 250 g rat receiving 0.5 mL of formulation. Sparse sampling approach was used to collect blood samples by cardiac puncture. The total volume of blood withdrawn within 24 hours was less than 5% of blood volume. Blood samples were collected in glass tubes at 0.083, 0.25, 0.5, 0.75, 1, 1.5, 2, 3, 4, 6, 8, 10, 18, 24, 48, and 60 h after oral dose. Blood samples were stored at room temperature for 30 min to separate the serum. Serum was separated by centrifugation at 1500 ×g for 10 min and stored at –60°C until analysis. Analysis was performed within 30 days of sample collection. Curve fitting and estimation of pharmacokinetic parameters of 97/63 were carried out using WinNonlin (5.1) software program (Pharsight Corp, USA). The data were tested using Gauss-Newton algorithm, with noncompartment, one compartment, and two-compartment models after applying different weighting factor to the observed values of the concentrations. Decision on the suitability of a particular compartment model in explaining the data was undertaken based on the Akaike or Schwarz information criterion, correlation coefficient, and scatter of residuals.

log P = assay type: physicochemical
malarial parasites [4] = test system: malarial parasites; parameters: method as in earlier work; settings: cited from earlier work; remark: listed apart in the source
[5] = Sprague-Dawley, rat, oral 72 mg kg^−1, male rats, serum

reinjection (autoinjector) stability, deviation ([1]; 4 h gap, samples stored at 4°C): less than 10% | dry residue stability after extraction ([1]; 8 days stored at −60°C): stable | long-term stability in serum ([1]; 30 days, normal serum stored at −60°C): stable | freeze-thaw stability in serum ([1]; three F-T cycles): stable | clearance ([3]; Sprague-Dawley, rat, serum, intravenous 18 mg kg^−1, male rats): 148 mL/min/kg | Vd ([3]; Sprague-Dawley, rat, serum, intravenous 18 mg kg^−1, male rats, read-out: Vd): 135 ± 11.2 L/kg | AUC(0-inf) ([3]; Sprague-Dawley, rat, intravenous 18 mg kg^−1, male rats, serum): 2030 ± 574 ng·h/mL | C0 ([3]; Sprague-Dawley, rat, intravenous 18 mg kg^−1, male rats, serum, mean ± SD, N = 4): 1800 ± 330 ng/mL | AUC(0-inf) [3, 5]: 1270 ± 27 ng·h/mL | Tmax [3, 5]: 1 ± 0.7 h | Cmax ([3]; Sprague-Dawley, rat, oral 72 mg kg^−1, male rats, serum, mean ± SD, N = 4): 229 ± 64.3 ng/mL | metabolite peaks in rat serum ([3]; after oral and intravenous dose, HPLC-UV): No metabolite peaks were observed | half-life ([3]; male, Sprague-Dawley, rat, serum, iv, 18 mg/kg, intravenous 18 mg kg^−1, male rats, read-out: T 1/2 (α) distribution half-life (converted)): 0.45 ± 0.08 h | half-life ([3]; male, Sprague-Dawley, rat, serum, iv, 18 mg/kg, intravenous 18 mg kg^−1, male rats, read-out: T 1/2 (β) elimination half-life (converted)): 10.6 ± 0.16 h | bioavailability ([3]; male, Sprague-Dawley, rat, serum, oral, 72 mg kg^−1, oral 72 mg kg^−1 vs intravenous 18 mg kg^−1, male rats, read-out: % bioavailability (absolute)): ~16% | half-life ([3]; male, Sprague-Dawley, rat, serum, po, 72 mg/kg, oral 72 mg kg^−1, male rats, read-out: T 1/2 (α) distribution half-life (converted)): 0.84 ± 0.14 h | half-life ([3]; male, Sprague-Dawley, rat, serum, po, 72 mg/kg, oral 72 mg kg^−1, male rats, read-out: T 1/2 (β) elimination half-life (converted)): 10.6 ± 0.2 h | Cl ([3]; oral 72 mg kg^−1, male rats): 187 ± 1.2 mL/min/kg | Vd ([3]; oral 72 mg kg^−1, male rats): 172.31 ± 28.59 L/kg | absorption rate constant (K a) ([3]; oral 72 mg kg^−1, male rats): 0.82 h⁻¹ | clinical symptoms after dosing ([3]; oral 72 mg kg^−1 and intravenous 18 mg kg^−1, male rats, sampling period): No abnormal clinical symptoms | % bioavailability (absolute) ([3]; oral 72 mg kg^−1 vs intravenous 18 mg kg^−1, male rats): 15.66% | logP (log P): < 3.5
SMILES: C=C(c1ccc(OC(C)(C)CO)cc1)C1COC2(OO1)C1CC3CC(C1)CC2C3 (stereo not shown) [97/63]
potency against malarial parasites in vitro (malarial parasites [2]): good potency | potency against malarial parasites in vivo (malarial parasites [4]): good potency
